# Measured values as given in ChEMBL document CHEMBL1143406 (Antimicrob Agents Chemother, 2007).
# How the values were obtained:
# Type in all cases: ADME, organism-based
# [1] = Half life in HIV-negative human at 600 mg, po administered every 24 hrs coadministered with 300 mg of atazanavir every 12 hrs; details: in vivo
# [2] = Tmax in HIV-negative human at 600 mg, po administered every 24 hrs coadministered with 300 mg of atazanavir every 12 hrs; details: in vivo
# [3] = Cmax in HIV-negative human at 600 mg, po administered every 24 hrs coadministered with 300 mg of atazanavir every 12 hrs; parameters: dose 600 mg, route oral; details: in vivo
# [4] = AUC (24 hrs) in HIV-negative human at 600 mg, po administered every 24 hrs coadministered with 300 mg of atazanavir every 12 hrs; parameters: dose 600 mg, time < 24 hr, route oral; details: plasma
# Homo sapiens [5] = experiment: Terminal apparent distribution volume in HIV-negative human at 600 mg, po administered every 24 hrs coadministered with 300 mg of atazanavir every 12 hrs; details: in vivo
# [6] = Apparent oral clearance in HIV-negative human at 600 mg, po administered every 24 hrs coadministered with 300 mg of atazanavir every 12 hrs; details: in vivo
# [7] = Half life in HIV-negative human at 600 mg, po administered every 24 hrs coadministered with 400 mg of atazanavir every 12 hrs; details: in vivo
# [8] = Tmax in HIV-negative human at 600 mg, po administered every 24 hrs coadministered with 400 mg of atazanavir every 12 hrs; details: in vivo
# [9] = Cmax in HIV-negative human at 600 mg, po administered every 24 hrs coadministered with 400 mg of atazanavir every 12 hrs; parameters: dose 600 mg, route oral; details: in vivo
# [10] = AUC (24 hrs) in HIV-negative human at 600 mg, po administered every 24 hrs coadministered with 400 mg of atazanavir every 12 hrs; parameters: time < 24 hr, dose 600 mg, route oral; details: plasma
# Homo sapiens [11] = experiment: Terminal apparent distribution volume in HIV-negative human at 600 mg, po administered every 24 hrs coadministered with 400 mg of atazanavir every 12 hrs; details: in vivo
# [12] = Apparent oral clearance in HIV-negative human at 600 mg, po administered every 24 hrs coadministered with 400 mg of atazanavir every 12 hrs; details: in vivo
structure (smiles),measurement,setting,value
CO[C@H]1/C=C/O[C@@]2(C)Oc3c(C)c(O)c4c(O)c(c(/C=N/N5CCN(C)CC5)c(O)c4c3C2=O)NC(=O)/C(C)=C\C=C\[C@H](C)[C@H](O)[C@@H](C)[C@@H](O)[C@@H](C)[C@H](O)[C@@H]1C,half-life,[1],1.6 h
same,Tmax,[2],3.2 h
same,Cmax,[3],1650 ng/mL
same,AUC at 24 h,[4],8300 ng·h/mL
same,Vbeta,Homo sapiens [5],200 L
same,CL/F,[6],1490 mL/min
same,half-life,[7],1.5 h
same,Tmax,[8],3.7 h
same,Cmax,[9],1710 ng/mL
same,AUC at 24 h,[10],9400 ng·h/mL
same,Vbeta,Homo sapiens [11],159 L
same,CL/F,[12],1260 mL/min
